In patent publication US20190216827A1, “Composite Formulation of Dutasteride and Tadalafil Comprising Glycerol Fatty Acid Ester Derivative or Propylene Glycol Fatty Acid Ester Derivative and Oral Capsule Formulation Comprising the Same” (Yuyu Pharma, Inc., priority 2016, published 2019):
≈ marks a conversion by molar mass, not a printed value.

How the values were obtained:
[1] = Solubility test of dutasteride and tadalafil in oils; type: physicochemical; conditions: room temperature, stirring for 24 hours; for solubility at 24 h: oil or lipid, thermodynamic from solid
[2] = as above; type: physicochemical; conditions: for solubility in a general oil: castor oil or soybean oil; for Solubility / solubility at 24 h: room temperature, stirring for 24 hours; for solubility at 24 h: oil or lipid, thermodynamic from solid
Protocol: In order to determine the solubility of dutasteride and tadalafil in oils, the solubilities to soybean oil, castor oil, glycerol monooleate, glycerol caprylate/caprate, propylene glycol monocaprylate and propylene glycol monolaurate were measured. A magnetic bar was placed in a 10 ml, vial, and 3 ml, of oil was added thereto. Then, while the mixture was stirred at room temperature, 100 mg of the main component was added thereto and the mixture was stirred at 500 rpm or higher. After stirring for 24 hours, only a supernatant was taken by a centrifugal separator, and an amount of the main component dissolved in the oil phase was quantitated by using a liquid chromatograph.

[3] = in glycerol caprylate/caprate, glycerol monooleate, propylene glycol monocaprylate and propylene glycol monolaurate
[4] = in glycerol fatty acid ester derivative or propylene glycol fatty acid ester derivative as oil component

17β-N-(2,5-bis (trifluoromethyl)) phenylcarbamoyl-4-aza-5α-androst-1-en-3-one [dutasteride]
Solubility ([1]; solvent Glycerol tricaprylate): 840 µg/mL | solubility in a general oil [2]: low | solubility of dutasteride [2, 3]: ≥ 2500 µg/mL | solubility of dutasteride [2, 4]: ≥ 1000 µg/mL | Solubility ([2]; solvent Castor oil): 1500 µg/mL | Solubility ([2]; solvent Glycerol caprylate/caprate): 14340 µg/mL | Solubility ([2]; solvent Glycerol monooleate): 4580 µg/mL | Solubility ([2]; solvent Propylene glycol dicaprate): 770 µg/mL | Solubility ([2]; solvent Propylene glycol dicaprylate): 1130 µg/mL | Solubility ([2]; solvent Propylene glycol monocaprylate): 20980 µg/mL | Solubility ([2]; solvent Propylene glycol monolaurate): 9340 µg/mL

CN1CC(=O)N2[C@H](c3ccc4c(c3)OCO4)c3[nH]c4ccccc4c3C[C@@H]2C1=O [tadalafil, 6R-trans-6-(1,3-benzodioxol-5-yl)-2,3,6,7,12,12a-hexahydro-2-methyl-pyrazino [1′,2′:1,6] pyrido[3,4-b]indole-1,4-dione]
solubility at 24 h ([1]; glycerol tricaprylate (oil), solvent Glycerol tricaprylate): 400 µg/mL (≈ 1030 µM) | solubility at 24 h ([1]; propylene glycol dicaprylate (oil), solvent Propylene glycol dicaprylate): 440 µg/mL (≈ 1130 µM) | solubility in a general oil [2]: low | solubility at 24 h ([2]; glycerol caprylate/caprate (oil), solvent Glycerol caprylate/caprate): 4130 µg/mL (≈ 10600 µM) | solubility at 24 h ([2]; glycerol monooleate (oil), solvent Glycerol monooleate): 1110 µg/mL (≈ 2850 µM) | solubility of tadalafil relative to that of dutasteride [2, 3]: ⅓ | solubility of tadalafil relative to the solubility of dutasteride [2, 4]: ½ | solubility at 24 h ([2]; solvent Castor oil): 1030 µg/mL (≈ 2650 µM) | solubility at 24 h ([2]; solvent Soybean oil): 240 µg/mL (≈ 616 µM) | solubility at 24 h ([2]; propylene glycol dicaprate (oil), solvent Propylene glycol dicaprate): 270 µg/mL (≈ 693 µM) | solubility at 24 h ([2]; propylene glycol monocaprylate (oil), solvent Propylene glycol monocaprylate): 4090 µg/mL (≈ 10500 µM) | solubility at 24 h ([2]; propylene glycol monolaurate (oil), solvent Propylene glycol monolaurate): 1030 µg/mL (≈ 2650 µM)
